The values below come from patent US12303592B2, “Formulations for parenteral delivery of compounds and uses thereof” (Wyeth, LLC, priority 2006, dated 2025).

For series [1] the following is noted: for inhibition of formation of 2′,2′ bis methylnaltrexone degradant / inhibition of formation of 7-dihydroxy-methylnaltrexone degradant: in presence of iron, 40° C. and room temperature. Here is the method:
FIG. 1A and FIG. 1B: Effect of CaEDTA and NaEDTA on the formation of 2′,2-bis methylnaltrexone in the presence of iron at 40° C. (FIG. 1A) and room temperature, […] (FIG. 1B).
FIGS. 2A, 2B, 2C, and 2D: Effect of CaEDTA on the formation of 7-dihydroxy methylnaltrexone in solutions. The effect of CaEDTA and NaEDTA on the formation of 7-dihydroxy methylnaltrexone in the presence of iron at 40° C. (FIG. 2A) and room temperature, 25° (FIG. 2B) was assessed. […] The effect of CaEDTA on the formation of 7-dihydroxy methylnaltrexone in solution following one month storage at room temperature (FIG. 2C) and at 40° C. (FIG. 2D) was assessed. The presence of CaEDTA reduced formation of 7-dihydroxy methylnaltrexone at either temperature.
FIG. 3A and FIG. 3B: Effect of CaEDTA in methylnaltrexone solution on the formation of a methylnaltrexone degradant having an RRT 0.79 (“the 0.79 degradant”). The effect of CaEDTA and NaEDTA on the formation of the 0.79 degradant at room temperature, 25° (FIG. 3A) and at 40° C. (FIG. 3B) was assessed. Calcium EDTA was not effective at inhibiting formation of the 0.79 degradant, and may increase levels of degradant formation.
Inhibition of metal-catalyzed formation of 2,2′bis methylnaltrexone. […] We have found by HPLC analysis (Method B) the 2,2′bis methylnaltrexone degradant results in a peak having an RRT about 1.55. Fe^3+ is an ion that can get into the liquid formulation from several sources. For example, it can be leached from stainless steel process equipment, syringe needles, stoppers and amber vials. EDTA, as a metal chelating agent sequesters the available Fe^3+ in the solution, thereby preventing catalysis of the undesirable metal-catalyzed reactions. Methylnaltrexone solutions were prepared in 0.9% NaCl, in the presence of iron and various concentrations of sodium EDTA and calcium EDTA. Used throughout the experiments sodium EDTA is EDTA disodium dihydrate, and the terms sodium EDTA, EDTA disodium dihydrate, and NaEDTA are used interchangeably throughout. Used throughout the experiments calcium EDTA is calcium EDTA disodium, and the terms calcium EDTA, calcium EDTA disodium, and CaEDTA are used interchangeably throughout. Formation of 2,2′bis methylnaltrexone was assessed at room temperature as well as at 40° C. Addition of either sodium or calcium EDTA solution was effective at inhibiting formation of the 2,2′bis methylnaltrexone degradant.
We have found Ca^2+ chelating agent provides additional inhibition of formation of a 7-dihydroxy-methylnaltrexone degradant as compared to Na^2+ chelating agent. Methylnaltrexone solutions were prepared in 0.9% NaCl, in the presence of iron and various concentrations of sodium EDTA and calcium EDTA. Formation of 7-dihydroxy-methylnaltrexone was assessed at room temperature as well as at 40° C.

The test system of series [2] is opioid receptors. Conditions: found in U.S. Ser. No. 11/441,395 and 11/441,452; cited from earlier work.

Each structure is given as a SMILES string.

On to `O.O.O=C([O-])CN(CCN(CC(=O)[O-])CC(=O)O)CC(=O)O.[Na+].[Na+]` [sodium EDTA, EDTA disodium dihydrate], for which, in series [1], the “inhibition of formation of 2′,2′ bis methylnaltrexone degradant” value is reported as “effective inhibitors” and the “inhibition of formation of 7-dihydroxy-methylnaltrexone degradant” value was “may even increase levels”.

As for `C[N+]1(CC2CC2)CCC23c4c5ccc(O)c4OC2C(=O)CCC3(O)C1C5` (single isomer, unassigned) [R—N isomer of methylnaltrexone], in series [2], the opioid activity result is on record as “opioid antagonist”.

As for `O=C([O-])CN(CCN(CC(=O)[O-])CC(=O)[O-])CC(=O)[O-].[Ca+2].[Na+].[Na+]` [calcium EDTA, calcium EDTA disodium], in series [1], the “inhibition of formation of 2′,2′ bis methylnaltrexone degradant” value is on record as “effective inhibitors” and the “inhibition of formation of 7-dihydroxy-methylnaltrexone degradant” value is “effective inhibitor”. Further, the “inhibition of formation of the 0.79 degradant” value in series [1] (room temperature and 40° C.) is reported as “not effective”.

As for `C[N@@+]1(CC2CC2)CC[C@]23c4c5ccc(O)c4OC2C(=O)CCC3(O)C1C5` (single isomer, unassigned) [S—N isomer of methylnaltrexone], the opioid activity entry in series [2] is recorded as “opioid agonist”.
